Consider 28 compounds from US6579881B2 (Eisai Co., Ltd., priority 1997, dated 2003).

pKi: −log10 of the molar value. Counter-ions that a name gives are not always drawn.

The target of one test is T1, serotonin 1A receptor (Rattus norvegicus, UniProt P19327).
T1 construct: To the receptor fraction of the hippocampus were added a test compound and 0.5 nM of [^3H]; 8-hydroxy-dipropylaminotetralin; from tissue; host or cells: SD rat hippocampus, membrane (receptor) fraction
T1 sequence (P19327 1-422): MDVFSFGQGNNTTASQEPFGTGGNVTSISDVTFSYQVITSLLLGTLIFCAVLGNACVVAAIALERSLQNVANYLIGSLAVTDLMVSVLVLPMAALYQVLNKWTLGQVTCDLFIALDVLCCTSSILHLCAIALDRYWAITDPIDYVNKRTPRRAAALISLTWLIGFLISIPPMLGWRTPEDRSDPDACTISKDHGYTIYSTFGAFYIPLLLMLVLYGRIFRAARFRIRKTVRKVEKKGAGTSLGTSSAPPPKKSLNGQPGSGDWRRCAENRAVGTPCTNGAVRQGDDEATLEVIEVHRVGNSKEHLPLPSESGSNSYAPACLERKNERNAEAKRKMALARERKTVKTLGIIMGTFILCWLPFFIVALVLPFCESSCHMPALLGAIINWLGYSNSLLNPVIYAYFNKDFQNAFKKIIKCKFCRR
Put plainly: Binding test on [3H] 8-hydroxy-dipropylaminotetralin (serotonin 1A receptor). The settings on record: [3H] 8-OH-DPAT 0.5 nM, receptor fraction of rat hippocampus; read-out: 5HT1a.

The target in another test is serotonin 2 receptor (Rattus norvegicus, UniProt P14842). Put plainly: Binding test on [3H] ketanserin (serotonin 2 receptor). The following applies: [3H] ketanserin 0.3 nM, receptor fraction of rat cerebral cortex; read-out: 5HT2.
serotonin 2 receptor, sequence (P14842 whole entry): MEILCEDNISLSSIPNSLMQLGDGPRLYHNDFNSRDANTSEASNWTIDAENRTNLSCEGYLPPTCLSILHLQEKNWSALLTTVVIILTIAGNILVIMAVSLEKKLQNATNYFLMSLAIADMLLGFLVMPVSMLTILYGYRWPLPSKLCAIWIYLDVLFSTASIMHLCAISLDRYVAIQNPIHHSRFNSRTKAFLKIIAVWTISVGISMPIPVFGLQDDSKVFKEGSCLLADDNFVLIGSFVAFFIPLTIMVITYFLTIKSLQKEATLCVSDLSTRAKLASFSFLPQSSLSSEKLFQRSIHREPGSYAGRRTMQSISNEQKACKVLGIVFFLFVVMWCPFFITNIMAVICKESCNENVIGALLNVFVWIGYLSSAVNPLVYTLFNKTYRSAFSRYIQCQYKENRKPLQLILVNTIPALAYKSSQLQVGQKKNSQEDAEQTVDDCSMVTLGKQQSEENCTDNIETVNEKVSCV

In the case of `OC1(c2ccc3c(c2)N(C2CCN(CCc4ccc(F)cc4)CC2)CC3)CCC1` [Example 140, 1-[1-(4-fluorophenethyl)piperidin-4-yl]-6-(1-hydroxycyclobutyl)indoline], the pKi at serotonin 1A receptor was 8.21; on serotonin 2 receptor, 7.46.
In the case of `Oc1ccc2c(c1)N(C1CCN(CCc3ccc(F)cc3)CC1)CC2` [Example 104, 1-[1-(4-fluorophenethyl)piperidin-4-yl]-6-hydroxyindoline], the values for the pKi on serotonin 1A receptor and on serotonin 2 receptor were 8.62 and 8.22, respectively.
Turning to `c1ccc2c(c1)CCN2C1CCN(CCc2ccsc2)CC1` [Example 59, 1-{1-[2-(3-thienyl)ethyl]piperidin-4-yl}indoline], the pKi was 7.92 on serotonin 1A receptor and 7.54 at serotonin 2 receptor.
The corresponding values for `O=C(c1ccc2c(c1)N(C1CCN(CCc3ccc(F)cc3)CC1)CC2)c1nccs1` [Example 194, 1-[1-(4-fluorophenethyl)piperidin-4-yl]-6-(2-thiazolylcarbonyl)indoline] are 8.34 and < 6.70.
Consider `COc1ccc2c(c1)C(N1CCN(CC(=O)c3ccc(F)cc3)CC1)CCC2` (centres unmarked) [Example 281, 1-{4-[2-(4-fluorophenyl)-2-oxoethyl]piperazin-1-yl}-7-methoxy-1,2,3,4-tetrahydronaphthalene Hydrochloride], for which the pKi on serotonin 1A receptor was 7.45; on serotonin 2 receptor it was 7.95.
Consider `COc1cccc2c1N(C1CCN(CCc3ccc(F)cc3)CC1)CC2` [Example 107, 1-[1-(4-fluorophenethyl)piperidin-4-yl]-7-methoxyindoline], for which the figures for the pKi at serotonin 1A receptor and on serotonin 2 receptor were 8.11 and 8.77, respectively.
The matching figures for `COc1cc2c(cc1Cl)CCN2C1CCN(CCc2ccc(F)cc2)CC1` [Example 219, 1-[1-(4-fluorophenethyl)piperidin-4-yl]-5-chloro-6-methoxyindoline]: 7.71 and 7.51.
As for `CCCC(=O)NCc1ccc2c(c1)N(C1CCN(CCc3ccc(F)cc3)CC1)CC2` [Example 157, 1-[1-(4-fluorophenethyl)piperidin-4-yl]-6-(n-butyryl)aminomethylindoline], the pKi on serotonin 1A receptor is 8.39; at serotonin 2 receptor, 9.74.
Regarding `Fc1ccc(CCN2CCC(N3CCc4ccc(Cl)nc43)CC2)c(F)c1` [Example 262, 1-[1-(2,4-difluorophenethyl)piperidin-4-yl]-6-chloro-7-azaindoline], the pKi at serotonin 1A receptor was 8.82; on serotonin 2 receptor it was 8.68.
Regarding `CC(=O)NCc1ccc2c(c1)N(C1CCN(CCCOc3ccc(F)cc3)CC1)CC2` [Example 232, 1-[1-(4-fluorophenoxypropyl)piperidin-4-yl]-6-acetamidomethylindoline], the figures for the pKi on serotonin 1A receptor and on serotonin 2 receptor were 7.42 and 7.32, respectively.
Consider `CS(=O)(=O)c1ccc2c(c1)N(C1CCN(CCc3ccc(F)cc3)CC1)CC2` [Example 128, 1-[1-(4-fluorophenethyl)piperidin-4-yl]-6-methanesulfonylindoline], for which the pKi was 9.47 at serotonin 1A receptor and 8.33 on serotonin 2 receptor.
Take `CCC(O)c1ccc2c(c1)N(C1CCN(CCc3ccc(F)cc3)CC1)CC2` (centres unmarked) [Example 138, 1-[1-(4-fluorophenethyl)piperidin-4-yl]-6-(1-hydroxypropyl)indoline]: the pKi at serotonin 1A receptor was 8.70; on serotonin 2 receptor, 8.23.
The matching figures for `CC(=O)Nc1ccc(CCN2CCC(N3CCc4ccccc43)CC2)cc1` [Example 32, 1-[1-(4-acetamidophenethyl)piperidin-4-yl]indoline]: 7.52 and 7.52.
Turning to `Fc1ccc(CCN2CCC(N3CCc4ccc(CC5CCNCC5)cc43)CC2)cc1` [Example 167, 1-[1-(4-fluorophenethyl)piperidin-4-yl]-6-[(piperidin-4-yl)methyl]indoline], the pKi on serotonin 1A receptor was 8.19; at serotonin 2 receptor, 7.73.
The corresponding values for `c1ccc2c(c1)CCN2C1CCN(CCCOc2ccc3c(c2)OCO3)CC1` [Example 78, 1-{1-[3-(3,4-methylenedioxypheoxy)propyl]piperidin-4-yl}indoline] are 8.62 and 7.53.
As to `Fc1cccc(CCN2CCC(N3CCc4ccccc43)CC2)c1` [Example 8, 1-[1-(3-fluorophenethyl)piperidin-4-yl]indoline], the figures for the pKi at serotonin 1A receptor and on serotonin 2 receptor were 7.87 and 7.57, respectively.
Take `CCNc1ccc2c(c1)N(C1CCN(CCc3ccc(F)cc3)CC1)CC2` [Example 112, 1-[1-(4-fluorophenethyl)piperidin-4-yl]-6-ethylaminoindoline]: the pKi at serotonin 1A receptor was 8.49; on serotonin 2 receptor, 6.78.
The corresponding values for `OC(c1ccc2c(c1)N(C1CCN(CCc3ccc(F)cc3)CC1)CC2)c1cncs1` (centres unmarked) [Example 196, 1-[1-(4-fluorophenethyl)piperidin-4-yl]-6-[1-(5-thiazolyl)-1-hydroxymethyl]indoline] are 8.78 and 8.93.
On to `CC(C)CNC(=O)Cc1ccc2c(c1)N(C1CCN(CCc3ccc(F)cc3)CC1)CC2` [Example 152, 1-[1-(4-fluorophenethyl)piperidin-4-yl]-6-(isobutylcarbamoylmethyl)indoline], for which the pKi is 7.79 on serotonin 1A receptor and 9.57 at serotonin 2 receptor.
The matching figures for `COc1ccc(CCN2CCC(N3CCc4ccc(Cl)nc43)CC2)cc1` [Example 263, 1-[1-(4-methoxyphenethyl)piperidin-4-yl]-6-chloro-7-azaindoline]: 9.34 and < 6.70.
For `COc1ccc(CCN2CCC(N3CCc4ccccc43)CC2)s1` [Example 64], the pKi on serotonin 1A receptor is 7.83; on serotonin 2 receptor, 7.85.
Take `Fc1ccc(CCN2CCC(N3CCc4ccc(Cc5ccccn5)cc43)CC2)cc1` [Example 175, 1-[1-(4-fluorophenethyl)piperidin-4-yl]-6-[1-(2-pyridyl)methyl]indoline]: the pKi on serotonin 1A receptor is 8.83; at serotonin 2 receptor it was 9.46.
Turning to `CC(=O)N(C)Cc1ccc2c(c1)N(C1CCN(CCc3ccc(F)cc3)CC1)CC2` [Example 163, 1-[1-(4-fluorophenethyl)piperidin-4-yl]-6-N-methylacetamidomethylindoline], the pKi at serotonin 1A receptor was 8.62; on serotonin 2 receptor it was 8.11.
Regarding `Cc1ncsc1CCN1CCC(N2CCc3ccccc32)CC1` [Example 61, 1-[1-(4-methyl-5-thiazolethyl)piperidin-4-yl]indoline], the pKi at serotonin 1A receptor was 8.30; on serotonin 2 receptor, 7.90.
The matching figures for `O=c1ccc(C(O)c2ccc3c(c2)N(C2CCN(CCc4ccc(F)cc4)CC2)CC3)c[nH]1` (centres unmarked) [Example 190, 1-[1-(4-fluorophenethyl)piperidin-4-yl]-6-[1-hydroxy-1-(2-pyridon-5-yl)methyl]indoline]: 9.31 and 9.48.
The corresponding values for `Fc1ccc(CCN2CCC(N3CCc4ccc(Cn5ccnc5)cc43)CC2)cc1` [Example 211, 1-[1-(4-fluorophenethyl)piperidin-4-yl]-6-(imidazol-1-yl)methylindoline] are 9.28 and 8.92.
For `CS(=O)(=O)Nc1ccc2c(c1)N(C1CCN(CCc3ccc(F)cc3)CC1)CC2` [Example 116, 1-[1-(4-fluorophenethyl)piperidin-4-yl]-6-methanesulfonylaminoindoline], the pKi on serotonin 1A receptor is 9.30; at serotonin 2 receptor, 7.84.
Turning to `Fc1ccc(CCN2CCC(N3CCc4ccc(Cc5nccs5)cc43)CC2)cc1` [Example 214, 1-[1-(4-fluorophenethyl)-piperidin-4-yl]-6-(2-thiazolyl)methylindoline], the pKi at serotonin 1A receptor is 8.46; at serotonin 2 receptor it was 9.05.
